Experimental findings from patent publication US20060094744A1, “Pharmaceutical dosage forms of stable amorphous rapamycin like compounds” (priority 2004, published 2006) are described below.

Molecules are shown by their SMILES.

This data set in a line: Differential scanning calorimetry of amorphous sirolimus (glass transition temperature). It is filed as physicochemical. The note with it: DSC, TA-Instruments Q1000 MTDSC, approximately 3 mg, heating rate 2° C./min; higher Tg is said to mean a more stable amorphous material. How it is done:
In another test, the amorphous sirolimus is analyzed utilizing differential scanning calorimetry. Essentially, the purpose of this test is to determine the glass transition temperature of the amorphous sirolimus. In this test, approximately 3 mg of amorphous sirolimus is transferred into a standard aluminum TA-Instrument sample pan and covered. The DSC curve is recorded on a TA-Instruments Q1000 MTDSC equipped with a RCS cooling unit. FIG. 2 illustrates a differential scanning calorimetry curve of amorphous sirolimus.
For orientation: In DSC, transitions show as peaks or steps in heat flow.

As for `CO[C@H]1C[C@@H]2CC[C@@H](C)[C@@](O)(O2)C(=O)C(=O)N2CCCC[C@H]2C(=O)O[C@H]([C@H](C)C[C@@H]2CC[C@@H](O)[C@H](OC)C2)CC(=O)[C@H](C)/C=C(\C)[C@@H](O)[C@@H](OC)C(=O)[C@H](C)C[C@H](C)/C=C/C=C/C=C/1C` [amorphous sirolimus, (3S,6R,7E,9R,10R,12R,14S,15E,17E,19E,21 S,23S, 26R,27R,34aS)-9, 10, 12, 13, 14,21,22,23,24,25,26,27,32,33,34, 34a-hexadecahydro-9,27-dihydroxy-3-[(1R)-2-[(1S,3R,4R)-4-hydroxy-3-methoxycyclohexyl]-1-methylethyl]-10,21-dimethoxy-6,8,12,14,20,26-hexamethyl-23,27-epoxy-3H-pyrido[2,1-c][1,4] oxaazacyclohentriacontine-1,5,11,28,29(4H,6H,31H)-pentone], the glass transition temperature entry is “about 93 °C”.
